Measurements reported in the NIST ThermoML archive (doi:10.1021/je050540h).

Test: xn = mol fraction of the nth substance listed
Settings: Liquid; for speed of sound: 7 kPa; for mass density / viscosity: 101 kPa

CCCC(C)O (stereo not drawn) [pentan-2-ol] + C1CCCCC1
Settings	mass density, 293.15 K [kg/m3]	mass density, 298.15 K [kg/m3]	mass density, 303.15 K [kg/m3]	speed of sound, 293.15 K [m/s]	speed of sound, 298.15 K [m/s]	speed of sound, 303.15 K [m/s]	viscosity, 293.15 K [mPa·s]	viscosity, 298.15 K [mPa·s]	viscosity, 303.15 K [mPa·s]
x2 = 0	809.04	805.01	800.9	1250	1232	1214	4.001	3.273	2.774
x2 = 0.0495	806.87	802.77	798.6	1247	1229	1210	3.606	2.969	2.474
x2 = 0.1002	804.68	800.52	796.28	1244	1225	1206	3.195	2.658	2.237
x2 = 0.2019	800.29	796	791.65	1238	1218	1199	2.516	2.125	1.82
x2 = 0.3067	796.06	791.67	787.23	1234	1213	1193	1.922	1.659	1.441
x2 = 0.4011	792.42	787.98	783.48	1231	1210	1189	1.583	1.385	1.233
x2 = 0.5085	788.62	784.11	779.56	1230	1209	1187	1.317	1.178	1.058
x2 = 0.6066	785.63	781.09	776.49	1232	1211	1189	1.17	1.056	0.957
x2 = 0.7118	782.94	778.32	773.65	1239	1216	1194	1.067	0.97	0.885
x2 = 0.8096	780.86	776.18	771.44	1247	1224	1201	1.045	0.952	0.871
x2 = 0.9049	779.29	774.54	769.74	1259	1235	1211	1.009	0.924	0.845
x2 = 0.9557	778.62	773.86	769.07	1267	1243	1219	0.997	0.912	0.837
